# Laboratory results published in ChEMBL document CHEMBL1126339, “HMG-CoA reductase inhibitors 4. Tetrazole series: conformational constraints and structural requirements at the hydrophobic domain” (Bioorg Med Chem Lett, 1992).
# Molecular target: T1, 3-hydroxy-3-methylglutaryl-coenzyme A reductase (Rattus norvegicus, UniProt P51639)
# T1 sequence (P51639 whole entry): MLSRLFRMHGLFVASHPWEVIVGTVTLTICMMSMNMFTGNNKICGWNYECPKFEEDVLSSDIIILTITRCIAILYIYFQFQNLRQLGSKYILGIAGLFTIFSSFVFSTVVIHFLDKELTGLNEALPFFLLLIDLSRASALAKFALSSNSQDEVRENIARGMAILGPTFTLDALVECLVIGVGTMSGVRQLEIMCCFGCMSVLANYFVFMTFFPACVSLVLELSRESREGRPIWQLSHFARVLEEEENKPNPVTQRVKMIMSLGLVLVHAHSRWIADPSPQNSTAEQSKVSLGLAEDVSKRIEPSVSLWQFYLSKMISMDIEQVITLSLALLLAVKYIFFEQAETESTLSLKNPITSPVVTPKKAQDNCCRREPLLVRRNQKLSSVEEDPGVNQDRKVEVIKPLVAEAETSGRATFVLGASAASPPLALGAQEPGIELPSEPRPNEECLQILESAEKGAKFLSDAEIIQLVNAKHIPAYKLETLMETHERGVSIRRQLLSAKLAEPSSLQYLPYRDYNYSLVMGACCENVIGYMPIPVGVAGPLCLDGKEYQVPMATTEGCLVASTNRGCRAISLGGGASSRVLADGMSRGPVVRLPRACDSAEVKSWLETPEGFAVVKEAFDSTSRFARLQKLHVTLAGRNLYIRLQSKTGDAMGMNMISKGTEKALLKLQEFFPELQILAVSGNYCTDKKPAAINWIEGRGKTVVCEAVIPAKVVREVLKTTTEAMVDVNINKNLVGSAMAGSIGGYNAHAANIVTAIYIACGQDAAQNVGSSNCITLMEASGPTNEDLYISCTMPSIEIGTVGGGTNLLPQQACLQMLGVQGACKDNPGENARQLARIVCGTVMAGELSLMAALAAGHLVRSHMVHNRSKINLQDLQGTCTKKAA
# Assay: Compound was tested for its inhibitory activity against rat liver microsomal HMG-CoA reductase
row,SMILES,IC50 [µM]
1,Cn1nnnc1C(/C=C/C(O)CC(O)CC(=O)O)=C(c1ccc(F)cc1)c1ccc(F)cc1 (stereo unspecified),0.043
2,Cn1nnnc1C(/C=C/C(O)CC(O)CC(=O)O)=C1c2ccc(F)cc2-c2cc(F)ccc21 (stereo unspecified),> 4.1
3,O=C(O)CC(O)CC(O)/C=C/c1c(-c2ccc(F)cc2)c2ccccc2n2nnnc12 (stereo unspecified),4.6
4,Cn1nnnc1C(CCC(O)CC(O)CC(=O)O)Cc1ccc(F)cc1 (stereo unspecified),> 250

# Second part, the compound after the results:
row,IC50 [µM],SMILES
1,210,Cn1nnnc1C(=C\c1ccc(F)cc1)/C=C/C(O)CC(O)CC(=O)O (stereo unspecified)
2,> 250,Cn1nnnc1C(/C=C/C(O)CC(O)CC(=O)O)=C/c1ccc(F)cc1 (stereo unspecified)
